Like-named read-outs stand apart in the source and are kept apart here.
Tests used:
Type in all cases: cell-based
HCV 1b = assay: HCV Replicon Assay; conditions: Hepatitis C virus
Experimental: (§1) Huh 7 Clone B cells containing HCV Replicon RNA would be seeded in a 96-well plate at 5000 cells/well, and the compounds tested at 10 μM in triplicate immediately after seeding. Following five days incubation (37° C., 5% CO2), total cellular RNA was isolated by using versaGene RNA purification kit from Gentra. Replicon RNA and an internal control (TaqMan rRNA control reagents, Applied Biosystems) were amplified in a single step multiplex Real Time RT-PCR Assay. The antiviral effectiveness of the compounds was calculated by subtracting the threshold RT-PCR cycle of the test compound from the threshold RT-PCR cycle of the no-drug control (ΔCt HCV). A ΔCt of 3.3 equals a 1-log reduction (equal to 90% less starting material) in Replicon RNA levels. The cytotoxicity of the compounds was also calculated by using the ΔCt rRNA values. 2′-C-Me-C was used as the positive control. To determine EC90 and IC50 values^2, ΔCt: values were first converted into fraction of starting material^3 and then were used to calculate the % inhibition.
• 1. Stuyver L et al., Ribonucleoside analogue that blocks replication or bovine viral diarrhea and hepatitis C viruses in culture. Antimicrob. Agents Chemother. 2003, 47, 244-254. • 2. Reed I J & Muench H, A simple method or estimating fifty percent endpoints. Am. J. Hyg. 27: 497, 1938. • 3.
A series of additional compounds was evaluated using the methods described herein.

human PBM cells = assay: Cellular toxicity assay, PBM cells; conditions: cytotoxicity IC50, human PBM cells
Experimental: (§2) The toxicity of the compounds was assessed in Vero, human PBM, CEM (human lymphoblastoid), MT-2, and HepG2 cells, as described previously (see Schinazi R. F., Sommadossi J.-P., Saalmann V., Cannon D. L., Xie M.-Y., Hart G. C., Smith G. A. & Hahn E. F. Antimicrob. Agents Chemother. 1990, 34, 1061-67). Cycloheximide was included as positive cytotoxic control, and untreated cells exposed to solvent were included as negative controls. The cytotoxicity IC50 was obtained from the concentration-response curve using the median effective method described previously (see Chou T.-C. & Talalay P. Adv. Enzyme Regul. 1984, 22, 27-55; Belen'kii M. S. & Schinazi R. F. Antiviral Res. 1994, 25, 1-11).

[1] = tested on: CEM (human lymphoblastoid) cells; assay: Cellular toxicity assay, CEM cells; conditions: cytotoxicity IC50, CEM cells
Experimental: as §2

Vero cells = assay: Cellular toxicity assay, Vero cells; conditions: cytotoxicity IC50, Vero cells
Experimental: as §2

[2] = Cytotoxicity in replicon cells by ΔCt rRNA values; conditions: human, Huh 7 Clone B cells containing HCV replicon RNA
Experimental: as §1

[3] = 120 h, Huh 7 Clone B cells containing HCV Replicon RNA, five days incubation, read-out: Replicon activity (Median Effective concentration EC50 range against HCV 1b)
[4] = 120 h, Huh 7 Clone B cells containing HCV Replicon RNA, five days incubation, read-out: Replicon EC50 (range against HCV 1b)
[5] = Huh-7, 120 h, read-out: Replicon EC50 (range against HCV 1b)

SMILES | EC50 (HCV 1b; [3]) | Toxicities PBM (human PBM cells) | Toxicities CEM [1] | Toxicities VERO (Vero cells) | EC50 (HCV 1b; [4]) | CC50 at 5 days [2] | EC50 (HCV 1b; [5])
C#Cc1ccc(-c2cn(-c3ccc(-c4cnc(C5CCCN5C(=O)[C@@H](NC(=O)OC)C(C)C)[nH]4)cc3)nn2)cc1 (stereo partly shown) | 1 to 99 nM | – | – | – | – | – | –
COC(=O)N[C@H](C(=O)N1C[C@H](n2ccnn2)C[C@H]1c1ncc(-c2ccc(-c3ccc(-c4cnc([C@@H]5C[C@@H](n6cc([Si](C)(C)C)nn6)CN5C(=O)[C@@H](NC(=O)OC)C(C)C)[nH]4)cc3)cc2)[nH]1)C(C)C | – | 3 µM | 16.2 µM | > 100 µM | 1 to 99 nM | > 1000 nM | –
COC(=O)N[C@H](C(=O)N1CCC[C@H]1c1ncc(-c2ccc(N=[N+]=[N-])cc2)[nH]1)C(C)C | 1 to 99 nM | – | – | – | – | – | –
COC(=O)N[C@H](C(=O)N1C[C@@H](n2cc(C(=O)OC)nn2)C[C@H]1c1ncc(-c2ccc(-c3ccc(-c4cnc([C@@H]5C[C@H](n6cc(C(=O)OC)nn6)CN5C(=O)[C@@H](NC(=O)OC)C(C)C)[nH]4)cc3)cc2)[nH]1)C(C)C | – | 53 µM | 13.5 µM | – | – | > 1000 nM | 100 to 999 nM
COC(=O)N[C@@H](CC(C)C)C(=O)N1CCC[C@H]1c1ncc(-c2ccc(-c3ccccc3)cc2)[nH]1 | 100 to 999 nM | – | – | – | – | – | –
COC(=O)N[C@H](C(=O)N1CCC[C@H]1c1ncc(-c2ccc(-n3cc(-c4cncn4C)nn3)cc2)[nH]1)C(C)C | 100 to 999 nM | – | – | – | – | – | –
COC(=O)N[C@H](C(=O)N1C[C@@H](n2cc(COC(C)=O)nn2)C[C@H]1c1ncc(-c2ccc(-c3ccc(-c4cnc([C@@H]5C[C@H](n6cc(COC(C)=O)nn6)CN5C(=O)[C@@H](NC(=O)OC)C(C)C)[nH]4)cc3)cc2)[nH]1)C(C)C | – | 53 µM | 13.5 µM | – | – | > 1000 nM | 100 to 999 nM
COC(=O)N[C@H](C(=O)N1C[C@H](n2cc(-c3ccccc3)nn2)C[C@H]1c1ncc(-c2ccc(-c3ccc(-c4cnc([C@@H]5C[C@@H](n6cc(-c7ccccc7)nn6)CN5C(=O)[C@@H](NC(=O)OC)C(C)C)[nH]4)cc3)cc2)[nH]1)C(C)C | – | > 100 µM | > 100 µM | > 100 µM | 1 to 99 nM | > 1000 nM | –
COC(=O)N[C@H](C(=O)N1CCC[C@H]1c1ncc(-c2ccc(-c3ccccc3)cc2)[nH]1)C(C)C [Methyl ((S)-1-((S)-2-(5-([1,1′-biphenyl]-4-yl)-1H-imidazol-2-yl)pyrrolidin-1-yl)-3-methyl-1-oxobutan-2-yl)carbamate] | 100 to 999 nM | – | – | – | – | – | –
COC(=O)N[C@H](C(=O)N1CCC[C@H]1c1ncc(-c2ccc(-n3cc(-c4ccccc4)nn3)cc2)[nH]1)C(C)C [Methyl ((S)-3-methyl-1-oxo-1-((S)-2-(5-(4-(4-phenyl-1H-1,2,3-triazol-1-yl)phenyl)-1H-imidazol-2-yl)pyrrolidin-1-yl)butan-2-yl)carbamate] | 100 to 999 nM | – | – | – | – | – | –
COC(=O)N[C@H](C(=O)N1C[C@@H](SC)C[C@H]1c1ncc(-c2ccc(-c3ccc(-c4cnc([C@@H]5C[C@H](SC)CN5C(=O)[C@@H](NC(=O)OC)C(C)C)[nH]4)cc3)cc2)[nH]1)C(C)C | – | 15.6 µM | 13.3 µM | 10.9 µM | < 1 nM | > 1000 nM | –
COC(=O)N[C@H](C(=O)N1C[C@H](n2cc([Si](C)(C)C)nn2)C[C@H]1c1ncc(-c2ccc(-c3ccc(-c4cnc([C@@H]5C[C@@H](n6cc([Si](C)(C)C)nn6)CN5C(=O)[C@@H](NC(=O)OC)C(C)C)[nH]4)cc3)cc2)[nH]1)C(C)C | – | > 100 µM | 25.2 µM | > 100 µM | 1 to 99 nM | > 1000 nM | –
